# Data: ChEMBL document CHEMBL3272184
# Legend:
# [1] = target: T1, Acetylserotonin O-methyltransferase (Bos taurus) (UniProt P10950); experiment: Inhibition of bovine pineal gland hydroxyindole O-methyltransferase using 24 to 210 uM S-adenosylmethionine substrate
# T1 sequence (whole entry): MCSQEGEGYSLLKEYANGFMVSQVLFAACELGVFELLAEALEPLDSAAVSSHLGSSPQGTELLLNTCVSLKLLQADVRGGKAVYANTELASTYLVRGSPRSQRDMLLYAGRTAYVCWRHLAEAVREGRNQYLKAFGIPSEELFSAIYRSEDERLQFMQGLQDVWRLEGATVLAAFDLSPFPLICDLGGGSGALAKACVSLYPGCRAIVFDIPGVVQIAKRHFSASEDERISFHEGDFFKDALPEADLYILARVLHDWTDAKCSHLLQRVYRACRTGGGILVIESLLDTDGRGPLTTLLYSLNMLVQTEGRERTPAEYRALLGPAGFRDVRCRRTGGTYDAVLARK
# [2] = target: T2, Catechol O-methyltransferase (Rattus norvegicus) (UniProt P22734); experiment: Inhibition of Sprague-Dawley rat liver catechol O-methyltransferase using 24 to 210 uM S-adenosylmethionine substrate
# T2 sequence (whole entry): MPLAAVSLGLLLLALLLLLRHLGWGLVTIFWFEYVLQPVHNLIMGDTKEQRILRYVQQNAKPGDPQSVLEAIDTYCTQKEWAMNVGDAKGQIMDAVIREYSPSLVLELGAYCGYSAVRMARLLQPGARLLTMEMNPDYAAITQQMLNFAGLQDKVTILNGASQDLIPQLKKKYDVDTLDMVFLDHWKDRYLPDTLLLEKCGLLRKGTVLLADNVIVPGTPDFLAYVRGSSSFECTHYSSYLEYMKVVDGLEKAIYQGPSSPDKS
# [3] = target: T3, Phenylethanolamine N-methyltransferase (Bos taurus) (UniProt P10938); experiment: Inhibition of bovine adrenal medulla phenylethanolamine N-methyltransferase using 24 to 210 uM S-adenosylmethionine substrate
# T3 sequence (whole entry): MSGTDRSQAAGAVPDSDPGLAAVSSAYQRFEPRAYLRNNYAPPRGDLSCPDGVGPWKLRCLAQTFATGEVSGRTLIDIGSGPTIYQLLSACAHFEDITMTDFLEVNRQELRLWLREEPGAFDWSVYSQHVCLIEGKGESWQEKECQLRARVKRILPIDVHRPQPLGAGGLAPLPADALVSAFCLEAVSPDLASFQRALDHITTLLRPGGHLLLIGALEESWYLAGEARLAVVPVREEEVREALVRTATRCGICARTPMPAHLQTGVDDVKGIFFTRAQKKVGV
Kis [1] [µM],Kis [2] [µM],Kis [3] [µM],Structure (SMILES)
51.8,–,–,Nc1ncnc2c1ncn2[C@@H]1C[C@@H](CSCC[C@H](N)C(=O)O)[C@@H](O)[C@H]1O
18.5,36.3,29,Nc1ncnc2c1ncn2[C@@H]1O[C@H](CSCC[C@H](N)C(=O)O)[C@@H](O)[C@H]1O
